biological target: T1, Acetylcholinesterase (Homo sapiens, UniProt P22303); assay: Inhibition of AChE at 10 uM by Ellman's assay
T1 sequence (P22303 whole entry): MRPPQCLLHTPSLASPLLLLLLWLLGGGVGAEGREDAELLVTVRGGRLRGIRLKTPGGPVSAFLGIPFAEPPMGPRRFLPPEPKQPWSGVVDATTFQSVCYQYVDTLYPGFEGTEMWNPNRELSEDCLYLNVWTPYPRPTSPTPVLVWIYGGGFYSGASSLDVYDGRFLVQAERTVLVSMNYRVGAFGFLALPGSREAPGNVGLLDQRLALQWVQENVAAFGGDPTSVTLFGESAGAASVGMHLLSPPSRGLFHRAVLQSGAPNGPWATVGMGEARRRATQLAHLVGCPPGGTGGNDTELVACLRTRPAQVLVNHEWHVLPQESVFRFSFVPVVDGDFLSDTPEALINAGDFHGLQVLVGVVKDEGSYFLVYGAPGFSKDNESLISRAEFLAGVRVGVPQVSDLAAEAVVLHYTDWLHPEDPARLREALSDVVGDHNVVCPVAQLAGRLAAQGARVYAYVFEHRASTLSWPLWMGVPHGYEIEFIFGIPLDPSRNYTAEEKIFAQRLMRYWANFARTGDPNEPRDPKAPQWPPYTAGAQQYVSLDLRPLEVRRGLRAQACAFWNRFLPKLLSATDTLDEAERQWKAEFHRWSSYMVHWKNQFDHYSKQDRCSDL

Row | SMILES | Ki
1 | CC(=O)O[C@H]1[C@H]2c3cc4c(cc3CN3CCC(=C[C@@H]1OC(C)=O)[C@H]23)OCO4 | Not Active
2 | CO[C@H]1C=C[C@@]23c4cc5c(cc4CN(C[C@@H]2O)[C@H]3C1)OCO5 | Not Active
3 | O[C@H]1C=C[C@@]23CCN(Cc4cc5c(cc42)OCO5)[C@@H]3C1 [CRININE] | Not Active
4 | COc1cc2c(cc1OC)[C@H]1[C@H]3C(=CC[C@H]1OC2=O)CCN3C [HOMOLYCORINE] | Not Active
5 | O[C@H]1[C@H]2c3cc4c(cc3CN3CCC(=C[C@@H]1O)[C@H]23)OCO4 [LYCORINE] | Not Active
6 | CO[C@H]1C=C2[C@H]3CN(Cc4cc5c(cc43)OCO5)[C@H]2C[C@@H]1O [MONTANINE] | Not Active
7 | COc1cc2c(cc1O)[C@@H]1[C@H](O)[C@@H](O)C=C3CCN(C2)[C@H]31 [PSEUDOLYCORINE] | Not Active
8 | CO[C@@H]1C=C[C@@]23c4cc5c(cc4CO[C@]2(O)CN(C)[C@H]3C1)OCO5 [TAZETTINE] | Not Active

biological target: T1, Acetylcholinesterase; assay: Inhibition of AChE by Ellman's assay

Row | SMILES | Ki [µM]
9 | CC(C)(C)[Si](C)(C)O[C@H]1C=C2CCN3Cc4cc5c(cc4[C@H]([C@@H]1OC(=O)c1ccccc1)[C@@H]23)OCO5 | 0.39
10 | O=C(O[C@H]1[C@H]2c3cc4c(cc3CN3CCC(=C[C@@H]1O)[C@H]23)OCO4)c1ccccc1 | 0.54
11 | CC(=O)O[C@H]1C=C2CCN3Cc4cc5c(cc4[C@H]([C@@H]1OC(=O)c1ccccc1)[C@@H]23)OCO5 | 0.97
12 | CC(=O)O[C@H]1[C@H]2c3cc4c(cc3CN3CCC(=C[C@@H]1O)[C@H]23)OCO4 | 0.43
13 | CC(C)(C)[Si](C)(C)O[C@H]1C=C2CCN3Cc4cc5c(cc4[C@H]([C@@H]1O)[C@@H]23)OCO5 | 0.86
14 | CC(=O)O[C@H]1[C@H]2c3cc4c(cc3CN3CCC(=C[C@@H]1O[Si](C)(C)C(C)(C)C)[C@H]23)OCO4 | 0.34

From ChEMBL document CHEMBL1221246, “Structure-activity studies on acetylcholinesterase inhibition in the lycorine series of Amaryllidaceae alkaloids” (Bioorg Med Chem Lett, 2010)
